According to patent US6162809A, “Pyridylthio compounds for controlling helicobacter bacteria” (Byk Gulden Lomberg Chemische Fabrik GmbH, priority 1994, dated 2000):
Counter-ions that a name gives are not always drawn.

Test system: Helicobacter pylori
Assay: activity against Helicobacter pylori (Columbia agar, growth period of 4 days)
Type: cell-based
Details: Columbia agar (Oxoid), approximate values

Compound | Approx. MIC 50
4-[3-(4-Phenyl-1-piperazinyl)propylthio]-2-[(4-pyridinylthio)methyl]pyridine [Compound 16] | ≤ 0,5 μg/ml

Same assay, conditions: Helicobacter pylori, 96 h, Columbia agar (Oxoid), approximate values, read-out: Approx. MIC 50

MIC50 | Compound
≤ 0.5 µg/mL | Cc1c(SCCCSC(=S)N(C)C)ccnc1CSc1ccncc1 [Compound 15, 4-[(3-Dimethyldithiocarbamoyl)propylthio]-3-methyl-2-[(4-pyridinylthio)methyl]pyridine]
≤ 0.5 µg/mL | Cc1c(SCCCn2c([N+](=O)[O-])cnc2C)ccnc1CSc1ncccn1 [Compound 32, 3-Methyl-4-[3-(2-methyl-5-nitroimidazol-1-yl)propylthio]-2-[(2-pyrimidinylthio)methyl]pyridine]
≤ 0.5 µg/mL | Cc1ncsc1CCSc1ccnc(CSc2ccccn2)c1C [Compound 3, 3-Methyl-4-[2-(4-methyl-5-thiazolyl)ethylthio]2-[(2-pyridinylthio)methyl]pyridine]
≤ 0.5 µg/mL | Cc1c(SCCCSc2ccncc2)ccnc1CSc1ccccn1 [Compound 6]
≤ 0.5 µg/mL | Cc1c(SCCCSCCn2c([N+](=O)[O-])cnc2C)ccnc1CSc1ccncc1 [Compound 29, 4-[[7-(2-Methyl-5-nitroimidazol-1-yl)-1,5-dithiahept-1-yl]-3-methyl]-2-[(4-pyridinylthio)methyl]-pyridine dihydrochloride]
≤ 0.5 µg/mL | Cc1c(SCCCSc2ccncc2)ccnc1CSc1ccncc1 [Compound 14, 3-Methyl-2-[(4-pyridinylthio)methyl]-4-[5-(4-pyridinyl)-1,5-dithiapentyl]pyridine]
≤ 0.5 µg/mL | Cc1c(SCc2ccco2)ccnc1CSc1ccncc1 [Compound 11, 4-(2-Furylmethylthio)-3-methyl-2-[(4-pyridinylthio)methyl]pyridine]
